In patent US8367700B2, “Substituted 4-(1.2,3,4-tetrahydroisoquinolin-2-yl)-4-oxobutyric acid amide as KCNQ2/3 modulators” (Gruenenthal GmbH, priority 2008, dated 2013):

Legend:
hKCNQ2/3 [1] = target: T1, hKCNQ2/3 (Homo sapiens, UniProt O43525+O43526); experiment: Voltage-clamp (patch-clamp) measurements on stably transfected hKCNQ2/3 CHO-K1 cell line; type: cell-based; set-up: expressed in transfected cells; host or cells: CHO-K1 (stably transfected); conditions: 10 μM test substance at −40 mV, current increase normalised against retigabine (10 μM), read-out: Patch-clamp % Efficacy @ 10 μM (Retigabine = 100%)
T1 sequence (O43526 whole entry): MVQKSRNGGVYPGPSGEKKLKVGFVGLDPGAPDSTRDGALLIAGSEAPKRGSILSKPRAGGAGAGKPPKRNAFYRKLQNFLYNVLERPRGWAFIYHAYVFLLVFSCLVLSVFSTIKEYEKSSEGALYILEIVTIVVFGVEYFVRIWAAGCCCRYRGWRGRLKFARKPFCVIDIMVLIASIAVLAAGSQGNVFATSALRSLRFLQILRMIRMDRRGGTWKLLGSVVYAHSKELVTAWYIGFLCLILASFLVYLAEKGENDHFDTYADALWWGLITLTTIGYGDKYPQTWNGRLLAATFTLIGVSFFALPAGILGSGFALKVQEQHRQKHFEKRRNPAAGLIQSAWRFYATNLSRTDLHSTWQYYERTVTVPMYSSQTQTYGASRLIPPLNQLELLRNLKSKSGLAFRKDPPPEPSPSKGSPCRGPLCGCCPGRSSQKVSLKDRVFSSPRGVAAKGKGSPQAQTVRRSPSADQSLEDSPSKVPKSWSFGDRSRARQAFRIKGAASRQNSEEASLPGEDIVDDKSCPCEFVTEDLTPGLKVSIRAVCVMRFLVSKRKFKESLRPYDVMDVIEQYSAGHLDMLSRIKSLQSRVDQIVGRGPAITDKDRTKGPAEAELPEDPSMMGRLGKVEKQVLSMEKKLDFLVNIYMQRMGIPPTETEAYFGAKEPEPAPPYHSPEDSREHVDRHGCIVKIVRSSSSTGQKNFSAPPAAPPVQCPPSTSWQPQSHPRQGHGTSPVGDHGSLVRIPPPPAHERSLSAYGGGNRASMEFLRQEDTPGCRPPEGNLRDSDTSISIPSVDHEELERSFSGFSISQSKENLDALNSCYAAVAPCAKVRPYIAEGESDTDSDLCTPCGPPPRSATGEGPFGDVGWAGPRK
T1 sequence (O43525 whole entry): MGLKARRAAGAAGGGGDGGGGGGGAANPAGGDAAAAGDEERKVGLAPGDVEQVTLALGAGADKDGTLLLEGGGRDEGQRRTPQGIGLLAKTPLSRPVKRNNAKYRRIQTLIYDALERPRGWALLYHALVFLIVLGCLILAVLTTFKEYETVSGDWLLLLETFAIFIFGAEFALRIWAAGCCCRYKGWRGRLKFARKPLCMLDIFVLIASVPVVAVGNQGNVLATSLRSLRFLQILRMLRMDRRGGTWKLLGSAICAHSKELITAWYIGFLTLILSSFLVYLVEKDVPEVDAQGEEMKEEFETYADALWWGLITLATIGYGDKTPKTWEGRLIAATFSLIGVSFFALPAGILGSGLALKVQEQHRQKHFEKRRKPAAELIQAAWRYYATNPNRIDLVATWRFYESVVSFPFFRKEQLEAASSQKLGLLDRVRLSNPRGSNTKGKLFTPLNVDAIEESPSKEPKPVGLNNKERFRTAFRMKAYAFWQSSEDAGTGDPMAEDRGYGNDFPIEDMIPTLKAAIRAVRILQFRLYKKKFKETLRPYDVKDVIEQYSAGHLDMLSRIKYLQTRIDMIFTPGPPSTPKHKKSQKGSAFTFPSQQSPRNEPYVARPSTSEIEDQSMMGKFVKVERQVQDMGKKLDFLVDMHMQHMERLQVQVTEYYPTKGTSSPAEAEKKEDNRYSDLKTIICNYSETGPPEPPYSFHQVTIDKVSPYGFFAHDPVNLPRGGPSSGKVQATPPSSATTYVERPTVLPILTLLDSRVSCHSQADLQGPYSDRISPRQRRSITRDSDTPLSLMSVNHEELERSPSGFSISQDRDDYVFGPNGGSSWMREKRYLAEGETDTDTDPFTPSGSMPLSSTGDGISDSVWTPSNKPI
Procedure: Voltage-Clamp Measurements
In order to confirm a KCNQ2/3 agonistic action of the substances electrophysiologically, patch-clamp measurements (Hamill O P, Marty A, Neher E, Sakmann B, Sigworth F J: Improved patch-clamp techniques for high-resolution current recording from cells and cell-free membrane patches, Pfluger's Arch. 1981 August; 391(2):85-100) were performed in voltage-clamp mode on a stably transfected hKCNQ2/3 CHO-K1 cell line. After formation of the gigaseal the cells were first clamped at a holding potential of −60 mV. Depolarising voltage jumps up to a potential of +20 mV were then applied (increment: 20 mV, duration: 1 second) in order to confirm the functional expression of KCNQ2/3-typical currents. The substances were tested at a potential of −40 mV. First of all the current increase induced by retigabine (10 μM) at −40 mV was recorded on each cell as a positive control. After completely washing out the retigabine effect (duration: 80 s) the test substance (10 μM) was applied. The current increase induced by the test substance was normalised against the retigabine effect and stated as the relative efficacy (see below).

hKCNQ2/3 [2] = target: T1, hKCNQ2/3; experiment: Fluorescence assay using a voltage-sensitive dye (fluorimetry); type: cell-based; set-up: expressed in transfected cells; host or cells: CHO-K1; conditions: CHO-K1 cells expressing KCNQ2/3
Procedure: Pharmacological Experiments Fluorescence Assay Using a Voltage-Sensitive Dye
Human CHO-K1 cells expressing KCNQ2/3 channels are cultivated adherently at 37° C., 5% CO2 and 95% humidity in cell culture bottles (e.g. 80 cm^2 TC flasks, Nunc) with DMEM-high glucose (Sigma Aldrich, D7777) including 10% FCS (PAN Biotech, e.g. 3302-P270521) or alternatively MEM Alpha Medium (1×, liquid, Invitrogen, #22571), 10% foetal calf serum (FCS) (Invitrogen, #10270-106, heat-inactivated) and the necessary selection antibiotics.
Before being sown out for the measurements, the cells are washed with a 1×DPBS buffer without Ca^2+/Mg^2+ (e.g. Invitrogen, #14190-094) and detached from the bottom of the culture vessel by means of Accutase (PAA Laboratories, #L11-007) (incubation with Accutase for 15 min at 37° C.). The cell count then present is determined using a CASY™ cell counter (TCC model, Scharfe System) in order subsequently to apply 20,000 to 30,000 cells/well/100 μl of the described nutrient medium, depending on density optimisation for the individual cell line, to 96-well measuring plates of the Corning™ CeIIBIND™ type (flat clear-bottom black polystyrene microplates, #3340).
Incubation is then carried out for one hour at room temperature, without gassing or adjusting the humidity, followed by incubation for 24 hours at 37° C., 5% CO2 and 95% humidity.
The voltage-sensitive fluorescent dye from the Membrane Potential Assay Kit (Red™ bulk format part R8123 for FLIPR, MDS Analytical Technologies™) is prepared by dissolving the contents of a vessel of Membrane Potential Assay Kit Red Component A in 200 ml of extracellular buffer (ES buffer, 120 mM NaCl, 1 mM KCl, 10 mM HEPES, 2 mM CaCl2, 2 mM MgCl2, 10 mM glucose; pH 7.4). After removal of the nutrient medium, the cells are washed with 200 μl of ES buffer, then covered with a layer of 100 μl of the dye solution prepared above and incubated for 45 min at room temperature with exclusion of light.
The fluorescence measurements are carried out with a BMG Labtech FLUOstar™ BMG Labtech NOVOstar™ or BMG Labtech POLARstar™ instrument (525 nm excitation, 560 nm emission, bottom-read mode). After incubation of the dye, 50 μl of the substances to be tested in the desired concentrations, or 50 μl of ES buffer for control purposes, are introduced into separate cavities of the measuring plate and incubated for 30 min at room temperature whilst being shielded from light. The fluorescence intensity of the dye is then measured for 5 min and the fluorescence value F1 of each well is thus determined at a given, constant time. 15 μl of a […] KCl solution ([…]) are then added to each well. The change in fluorescence is subsequently measured until all relevant measured values have been obtained (mainly 5-30 min). At a given time after KCl application, a fluorescence value F2 is determined, in this case at the time of the fluorescence peak.
For calculation, the fluorescence intensity F2 is compared with the fluorescence intensity F1, and the agonistic activity of the target compound on the potassium channel is determined therefrom. F2 and F1 are calculated as follows: […]
In order to determine whether a substance has an agonistic activity,
[formula] for example, can be compared with
[formula] of control cells.
[formula] is determined by adding to the reaction batch only the buffer solution instead of the substance to be tested, determining the value F1K of the fluorescence intensity, adding the potassium ions as described above and measuring a value F2K of the fluorescence intensity. Then F2K and F1K are calculated as follows: […]
A substance has an agonistic activity on the potassium channel if
[formula] is greater than
Independently of the comparison of
[formula] it is also possible to conclude that a target compound has an agonistic activity if an increase in
[formula] is to be observed as the dosage of the target compound increases. […]

rat = experiment: Formalin test in the rat; type: in vivo, Sprague Dawley rats; conditions: phase II (21-27 min after formalin administration)
Procedure: The formalin test (Dubuisson, D. and Dennis, S. G., 1977, Pain, 4, 161-174) is a model for acute and chronic pain. In the tests described here, the chronic pain component (phase II of the formalin test; time interval 21-27 min after formalin administration) was analysed.
A single formalin injection into the dorsal side of one rear paw was used to induce a biphase nociceptive response in experimental animals allowed to move freely, and the response was recorded by observation of three clearly distinguishable behaviour patterns.
Formalin is administered subcutaneously in a volume of 50 μl and a concentration of 5% into the dorsal side of the right rear paw of each animal. The vehicle and the substances to be tested are administered intravenously 5 minutes before or orally 30 minutes before the formalin injection.
The specific behavioural changes, such as lifting and shaking the paw, shifting of weight by the animal and biting and licking responses, are observed and recorded continuously for 60 minutes after formalin administration. The behavioural changes are weighted differently (score 0-3) and a pain rate (PR) calculated using the formula below: PR=[(T0×0)+(T1×1)+(T2×2)+(T3×3)/180.
Sprague Dawley rats (Janvier, Belgium) are used as the phylum. The weight of the animals is between 180 and 200 g. The group size was n=10.

O=C(CCC(=O)N1CCc2ccccc2C1c1ccccc1)NCc1cccc(C(F)(F)F)c1 (stereo not shown) [Example compound 1, 4-Oxo-4-(1-phenyl-3,4-dihydroisoquinolin-2(1H)-yl)-N-(3-(trifluoromethyl)benzyl)butyric acid amide]
Emax at 10 µM (hKCNQ2/3 [1]): 78% | Emax at 10 µM (hKCNQ2/3 [2]; 10 μM, relative to retigabine = 100%, read-out: Fluorimetry % Efficacy @ 10 μM (Retigabine = 100%)): 110% | EC50 (hKCNQ2/3 [2]): 1900 nM | Formalin test rat i.v. @ 4.64 mg/kg % Reduction of nociceptive behaviour (rat): 40%
